Consider five molecules from patent publication US20020019344A1, “Methods of preventing allograft rejection” (priority 2000, published 2002).

The subject of one test is monocyte/macrophages. The conditions noted are these: Thieringer et al.; cited from earlier work.
For test [1], the system named is IL-2 secretion in human T lymphocytes. As to the kind of experiment: Inhibition of PHA/PMA-induced IL-2 secretion in human T lymphocytes. In kind it is cell-based. As to conditions: for activation of IL-2 production: 5 micromolar, preincubation 12 hours prior to activator. The procedure: The following test can be used to detect whether an insulin sensitizing agent is also able to inhibit IL-2 production. Isolated human T lymphocytes or a mammalian lymphocyte cell line which expresses PPARgamma is stimulated with one or a combination of PHA/PMA, TNF-alpha, interferon-gamma or some other factor that activates induction of IL-2 gene expression. Production of IL-2 is determined by measuring the concentration of IL-2 in the supernatant from cells using Endogen kits (Wolbum), as described by Yang et al.

The subject of the next test is NF-kappaB. As to the kind of experiment: Inhibition of NF-kappaB activation, electrophoretic mobility shift assay. In kind it is cell-based, human. As to conditions: 5 micromolar; preincubation 2 hours prior to activator. The procedure: The following test can be used to generically identify compounds of use in this invention based upon their ability to act as an agonist of PPAR. […] The rexinoid, LG100754 is a selective RXR/PPARgamma agonists. These compounds are tested for the ability to inhibit activity of NF-kappaB. Isolated human T lymphocytes or a mammalian cell line such as a Jurkat T cell line which expresses PPARgamma is stimulated with a concentration of one or a combination of: phytohemagglutinin/phorbol 12-myristate 13-acetate (PHA/PMA), TNF-alpha, interferon-gamma or some other factor that activates NF-kappaB. Activation of NF-kappaB is determined by electrophoretic mobility shift assay similar to that described by Rossi et al.
On the technique in general: A gel shift assay detects complexes by their altered migration in electrophoresis.

Another test has as its system NFAT. As to the kind of experiment: Inhibition of NFAT activation, electrophoretic mobility shift assay. The conditions noted are these: 5 micromolar; preincubation 2 hours prior to activator. In kind it is cell-based, human. The procedure:
Isolated human T lymphocytes or a mammalian cell line such as a Jurkat T cell line which expresses PPARgamma is stimulated with a concentration of one or a combination of PHA/PMA, TNF-alpha, interferon-gamma or some other factor that activates NFAT. Transcriptional activation of NFAT is determined by electrophoretic mobility shift assay similar to that described by Yang et al.

Where [2] appears, read: 10 uM, preincubated with drug for 24 hr, +PHA/PMA.

Where two headings read alike, the source gives them in different places.

With `Cc1oc(-c2ccccc2)nc1C(O)COc1ccc(CC2SC(=O)NC2=O)cc1` (centres unmarked) [AD-5075], the “effect on TNF-alpha and lipopolysaccharide production” value with monocyte/macrophages is “no effect”.

As for `CN(CCOc1ccc(CC2SC(=O)NC2=O)cc1)C(=O)CCCCC1CCSS1` (centres unmarked) [BP1-003], in test [1] (setting [2]), the IL-2 released was 37 ± 7 pg/ml supernatant and the “Percent Inhibition” value came to 92%.

For the molecule `CCCOc1cc2c(cc1\C(C)=C/C=C/C(C)=C/C(=O)O)C(C)(C)CCC2(C)C` [LG100754], the “activation of NF-kappaB” value in the test on NF-kappaB was “inhibits the activation of NF-kappaB”. The “activation of IL-2 production” value in test [1] is “inhibits the activation of IL-2 production”. Moreover, in the test with NFAT, the “activation of NFAT” value is “inhibits the activation of NFAT”.

Take `CCCCC[C@H](O)/C=C/[C@H]1C(=O)C=C[C@@H]1C/C=C\CCCC(=O)O` [prostaglandin J2]: the “activation of NF-kappaB” value in the test with NF-kappaB was “inhibits the activation of NF-kappaB”. Besides, the “activation of IL-2 production” value in test [1] was “inhibits the activation of IL-2 production”. In addition, in the test with NFAT, the “activation of NFAT” value was “inhibits the activation of NFAT”.

The inhibition is the percentage by which the read-out fell short of the control. Turning to `CN(CCOc1ccc(CC2SC(=O)NC2=O)cc1)c1ccccn1` (centres unmarked) [rosiglitazone], the IL-2 released in test [1] (0.1 uM, preincubated with drug for 12 hr, +PHA/PMA) stood at 481 ± 11 c.p.m; in test [1] (1.0 uM, preincubated with drug for 12 hr, +PHA/PMA) it was 406 ± 12 c.p.m; in test [1] (10 uM, preincubated with drug for 12 hr, +PHA/PMA), 323 ± 26 c.p.m; in test [1] (setting [2]), 112 ± 7 pg/ml supernatant. For the same molecule, the inhibition at 0.1 µM in test [1] (Homo sapiens, T-lymphocyte, 0.1 uM, preincubated with drug for 12 hr, +PHA/PMA, read-out: Percent Inhibition) was found to be 12%. Further, the inhibition at 1 µM in test [1] (Homo sapiens, T-lymphocyte, 1.0 uM, preincubated with drug for 12 hr, +PHA/PMA, read-out: Percent Inhibition) was determined as 25%. Besides, the inhibition at 10 µM is 41% in test [1] (Homo sapiens, T-lymphocyte, 10 uM, preincubated with drug for 12 hr, +PHA/PMA, read-out: Percent Inhibition) and 75% in test [1] (Homo sapiens, T-lymphocyte, 10 uM, preincubated with drug for 24 hr, +PHA/PMA, read-out: Percent Inhibition).
